{"source": "patent US12529022B2", "about": "“Human organ-on-chip models for predictive screening” (The Trustees of Columbia University in the City of New York, priority 2018, dated 2026)", "key": {"[1]": {"system": "metastatic (SK-N-MC cell line derived) Ewing sarcoma OOC", "experiment": "Metastatic Ewing sarcoma OOC, luciferase luminescence (cancer cell number and viability)", "type": "cell-based, human", "settings": "12 μM", "procedure": "Drug treatment experiments recapitulating the patient treatment regimens and the patient plasma concentration of 12 μM of linsitinib were then carried out on the nonmetastatic and metastatic TE-ES and OS models. FIGS. 42 and 43 are graphs illustrating non-metastatic (RD-ES cell line derived, FIG. 42) and metastatic (SK-N-MC cell line derived, FIG. 43) Ewing sarcoma OOCs were exposed to linsitinib (12 μM) according to the drug treatment regimen. Luminescence as a function of cancer cell number and viability was measured (mean±s.e.m., n=6 for day 3, and n=3 for day 7 and 21, biologically independent per group). Significance was determined by unpaired two-tailed Student's t test of treatment group at specific day with respective control; *P<0.05; **P<0.01; ***P<0.001. Tissue engineered bone tumor models: Using an established protocol, expanded MSCs were seeded into the bone matrix scaffolds (4 mm×4 mm×1 mm) at a concentration of 10^6 cells per scaffold, using 40 μL of medium. The cells were allowed to attach for 2 hours, and then supplemented with additional mesenchymal stem cell medium overnight. The following day, osteogenic differentiation of the seeded cells was initiated by addition of low glucose DMEM supplemented with 1 μM dexamethasone (Sigma-Aldrich), 10 mM β-glycerophosphate (SigmaAldrich), and 50 μM L-ascorbic acid-2-phosphate (Sigma Aldrich). Each scaffold was incubated in 4 mL of osteogenic media, with media changes three times a week, for 3 weeks, allowing for the MSCs to differentiate into functional, maturing osteoblasts. Two weeks following the initiation of osteogenic differentiation, aggregates of tumor cells were prepared as described previously. Briefly, 0.3×10^6 cells were used to form ES aggregates and 0.5×10^6 cells were used to form OS aggregates. After 1 week of culture, the primary bone tumor aggregates were infused into the differentiated osteoblastseeded bone scaffolds (3 aggregates per scaffold, placed apart of each other). Tumor models were established for each of the two ES cell types (non-metastatic RD-ES, metastatic SK-NMC) and three OS cell types (non-metastatic U2-OS and Saos2, metastatic KHOS/NP). TE-RD-ES were cultured in the RPMI medium, TE-U-2 OS in DMEM, TE-Saos2 in McCoy's 5A, and TESK-N-MC and TE-KHOS/NP both in EMEM. Scaffolds without aggregates were used as healthy bone controls for each tumor model (termed TE-bone) and were cultured in the respective cancer cell line medium. All culture media were supplemented with 10% FBS and 1% penicillin/streptomycin. […] Tissues were randomly assigned to experimental groups. Medium was changed every day. Cardiac tissues were exposed to linsitinib for 3 days. The bone tumor models were exposed to a physiological treatment regimen consisted of cycles that involved 3 consecutive days of treatment followed by 4 days without drug, unless otherwise stated. Cell viability: Cancer cell viability was measured for GFP-Luciferase labelled cancer cells using ONE-Glo luciferase substrate that was prepared according to manufacturer's protocol (Promega). Samples were collected following 3, 7, and 21-day cycles of Linsitinib treatment. Cardiac cell viability was assessed through the Pierce LDH Cytotoxicity Assay Kit (Thermo Fisher Scientific). Samples were collected at 0 h, 1 h and 72 h."}, "[2]": {"system": "non-metastatic (U2-OS cell line derived) osteosarcoma OOC", "experiment": "Non-metastatic osteosarcoma OOC, luciferase luminescence (cancer cell number and viability)", "type": "cell-based, human", "settings": "12 μM", "procedure": "Drug treatment experiments recapitulating the patient treatment regimens and the patient plasma concentration of 12 μM of linsitinib were then carried out on the nonmetastatic and metastatic TE-ES and OS models. FIGS. 44 and 45 are graphs illustrating non-metastatic (U2-OS cell line derived, FIG. 44) and metastatic (KHOS/NP cell line derived, FIG. 45) osteosarcoma OOCs exposed to linsitinib (12 μM) according to the drug treatment regimen outlined. Luminescence as a function of cancer cell number and viability was measured (mean±s.e.m., n=6 for day 3, and n=3 for day 7 and 21, biologically independent per group). Significance was determined by unpaired two-tailed Student's t test of treatment group at specific day with respective control; *P<0.05; **P<0.01; ***P<0.001. Tissue engineered bone tumor models: Using an established protocol, expanded MSCs were seeded into the bone matrix scaffolds (4 mm×4 mm×1 mm) at a concentration of 10^6 cells per scaffold, using 40 μL of medium. The cells were allowed to attach for 2 hours, and then supplemented with additional mesenchymal stem cell medium overnight. The following day, osteogenic differentiation of the seeded cells was initiated by addition of low glucose DMEM supplemented with 1 μM dexamethasone (Sigma-Aldrich), 10 mM β-glycerophosphate (SigmaAldrich), and 50 μM L-ascorbic acid-2-phosphate (Sigma Aldrich). Each scaffold was incubated in 4 mL of osteogenic media, with media changes three times a week, for 3 weeks, allowing for the MSCs to differentiate into functional, maturing osteoblasts. Two weeks following the initiation of osteogenic differentiation, aggregates of tumor cells were prepared as described previously. Briefly, 0.3×10^6 cells were used to form ES aggregates and 0.5×10^6 cells were used to form OS aggregates. […] Cell viability: Cancer cell viability was measured for GFP-Luciferase labelled cancer cells using ONE-Glo luciferase substrate that was prepared according to manufacturer's protocol (Promega). […] Cardiac cell viability was assessed through the Pierce LDH Cytotoxicity Assay Kit (Thermo Fisher Scientific). […]"}, "human cardiac OOC": {"system": "human cardiac OOC", "experiment": "Cardiac OOC hydrogen peroxide (ROS-Glo H2O2) assay", "type": "cell-based", "settings": "after linsitinib treatment", "procedure": "Tissues were randomly assigned to experimental groups. Medium was changed every day. Cardiac tissues were exposed to linsitinib for 3 days.\nHydrogen peroxide assay: After drug treatment, hydrogen peroxide (H2O2) levels in cardiac tissues were measured using ROS-Glo™ H2O2 Assay (Promega)."}, "ES model": {"system": "ES model", "experiment": "Immunohistochemical Ki67 staining and TUNEL assay of the ES model", "type": "cell-based, human", "settings": "ES model after linsitinib treatment", "description": "To assess apoptosis, paraffin embedded tissue sections were first deparaffinized with CitriSolv, rehydrated with graded series of ethanol washes, and then stained with a Click-iT® TUNEL Alexa Fluor® imaging assay (Thermo Fisher Scientific)."}}, "data": [{"smiles": "C[C@]1(O)C[C@@H](c2nc(-c3ccc4ccc(-c5ccccc5)nc4c3)c3c(N)nccn32)C1", "note": "[linsitinib, Linsitinib (OSI-906)]", "values": [{"measurement": "course of treated cancer cell population", "setting": "[1]; 21-day treatment cycle", "result": "continued to expand throughout the 21-day treatment cycle"}, {"measurement": "drug efficacy after day 3", "setting": "[1]; after 3 days", "result": "decrease in drug efficacy"}, {"measurement": "luminescence (cancer cell number and viability) vs control", "setting": "[1]; day 3", "result": "significant drug response"}, {"measurement": "luminescence (cancer cell number and viability) vs control", "setting": "[1]; day 7", "result": "significant responses"}, {"measurement": "luminescence (cancer cell number and viability) vs control", "setting": "[1]; day 21", "result": "significant responses"}, {"measurement": "course of treated cancer cell population", "setting": "[2]; after 3 weeks", "result": "no longer expanding"}, {"measurement": "luminescence (cancer cell number and viability) vs control", "setting": "[2]; after 3 weeks of drug treatment", "result": "significant response"}, {"measurement": "luminescence (cancer cell number and viability) vs control", "setting": "[2]; after 3 days", "result": "no significant response"}, {"measurement": "levels of reactive oxygen species (hydrogen peroxide formation)", "setting": "human cardiac OOC", "result": "not observed"}, {"measurement": "apoptosis by TUNEL assay", "setting": "ES model", "result": "increases in apoptosis"}, {"measurement": "proliferation via Ki67-staining", "setting": "ES model", "result": "reduced proliferation"}]}]}
